One series relates to HePG-2. In words: MTT cytotoxicity assay, HePG-2. In kind it is cell-based. To be noted: Homo sapiens, HepG2; MTT, liver cancer cells; read-out: IC50 HePG-2. The protocol: The cytotoxic activity was assessed using the 3-(4,5-dimethylthiazol-2-yl)-2,5-diphenyl tetrazolium bromide (MTT) colorimetric assay, as reported previously. Doxorubicin was used as a reference standard, and DMSO was used as a negative control. Briefly, the designated cell lines were cultured at a concentration of 5 × 10^4 cell/well in 96-well plates. The cells were incubated for 24 h under optimum conditions. Following this, the designated molecules were introduced (in serial dilutions from 0 to 50 μg/mL), and the cells were incubated for an additional 24 h. Following this, the media were withdrawn, and 100 μL of fresh medium was added. Then, 10 µL of the 12 mM MTT stock solution was administered to each well. The plates were then incubated for 4 h. […] An 85-μL aliquot of the media was removed from the wells, and 50 µL of DMSO was added to each well and mixed thoroughly with the pipette and incubated at 37 °C for 10 min. Then, the optical density was measured at 590 nm with the microplate reader (Sunrise, TECAN, Inc., Morrisville, NC, USA).

The next series concerns MCF-7. In words: MTT cytotoxicity assay, MCF-7. In kind it is cell-based. To be noted: Homo sapiens, MCF7; MTT, breast cancer cells; read-out: IC50 MCF-7. A general note: Formazan colour is commonly taken as a measure of viable cells.
The test system of the next series is HCT-116. In words: MTT cytotoxicity assay, HCT-116. In kind it is cell-based. To be noted: Homo sapiens, HCT-116, read-out: IC50 HCT-116; MTT, colon cancer cells.
The next series concerns the target T1, Topo-II (Homo sapiens, UniProt Q02880).
T1 construct: purchased
In words: In vitro Topo II inhibitory assay. In kind it is biochemical. The protocol: Curve fitting was performed using GraphPad Prism.
(1 picture or pasted object on this page, not shown here)

Where only a bound is given, the exact number is not on record here.

The term melting point denotes the temperature of the solid-liquid transition. As usually defined, the IC50 is the point on the concentration scale where inhibition reaches its midpoint.

T1 sequence (Q02880 2-1626): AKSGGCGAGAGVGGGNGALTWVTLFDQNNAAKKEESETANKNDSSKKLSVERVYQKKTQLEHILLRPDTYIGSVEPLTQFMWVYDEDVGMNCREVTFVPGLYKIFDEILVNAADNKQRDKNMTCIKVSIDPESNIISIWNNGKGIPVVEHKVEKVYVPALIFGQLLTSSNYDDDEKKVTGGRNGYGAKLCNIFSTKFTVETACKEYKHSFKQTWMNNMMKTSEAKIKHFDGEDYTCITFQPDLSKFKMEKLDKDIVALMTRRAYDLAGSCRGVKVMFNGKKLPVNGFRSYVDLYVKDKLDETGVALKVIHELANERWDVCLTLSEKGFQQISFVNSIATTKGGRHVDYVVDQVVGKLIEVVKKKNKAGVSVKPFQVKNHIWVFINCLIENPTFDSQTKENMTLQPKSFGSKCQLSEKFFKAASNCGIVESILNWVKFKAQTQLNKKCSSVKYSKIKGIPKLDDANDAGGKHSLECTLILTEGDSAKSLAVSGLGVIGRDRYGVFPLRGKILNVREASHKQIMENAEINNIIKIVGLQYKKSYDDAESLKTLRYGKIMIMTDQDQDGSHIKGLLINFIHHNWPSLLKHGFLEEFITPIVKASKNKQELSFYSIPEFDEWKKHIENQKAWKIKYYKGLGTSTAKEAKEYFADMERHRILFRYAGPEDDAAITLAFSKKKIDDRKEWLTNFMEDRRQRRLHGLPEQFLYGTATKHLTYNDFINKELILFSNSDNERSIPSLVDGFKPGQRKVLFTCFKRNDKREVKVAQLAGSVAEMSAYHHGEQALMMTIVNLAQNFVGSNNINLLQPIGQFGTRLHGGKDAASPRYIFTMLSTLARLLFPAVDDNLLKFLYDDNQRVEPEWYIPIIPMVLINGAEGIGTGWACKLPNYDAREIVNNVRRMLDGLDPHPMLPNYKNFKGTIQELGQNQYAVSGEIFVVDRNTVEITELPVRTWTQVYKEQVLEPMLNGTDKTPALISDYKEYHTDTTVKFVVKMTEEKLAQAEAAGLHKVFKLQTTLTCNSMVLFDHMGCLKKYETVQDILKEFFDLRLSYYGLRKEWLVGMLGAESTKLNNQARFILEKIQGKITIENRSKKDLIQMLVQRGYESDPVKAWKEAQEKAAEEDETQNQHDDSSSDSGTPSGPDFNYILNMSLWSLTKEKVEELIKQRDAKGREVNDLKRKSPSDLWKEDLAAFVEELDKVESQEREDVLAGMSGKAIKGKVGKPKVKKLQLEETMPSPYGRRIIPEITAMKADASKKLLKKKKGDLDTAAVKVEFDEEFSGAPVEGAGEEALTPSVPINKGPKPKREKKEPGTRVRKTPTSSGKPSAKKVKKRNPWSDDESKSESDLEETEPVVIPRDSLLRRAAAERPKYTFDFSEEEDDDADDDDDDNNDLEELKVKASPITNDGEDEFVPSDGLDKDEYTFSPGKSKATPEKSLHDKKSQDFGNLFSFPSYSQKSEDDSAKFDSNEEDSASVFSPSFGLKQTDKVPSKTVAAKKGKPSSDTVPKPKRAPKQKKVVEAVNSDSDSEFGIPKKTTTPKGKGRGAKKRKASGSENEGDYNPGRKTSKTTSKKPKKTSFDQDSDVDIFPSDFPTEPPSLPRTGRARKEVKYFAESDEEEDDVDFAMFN
Method for HCT-116: The cytotoxic activity was assessed using the 3-(4,5-dimethylthiazol-2-yl)-2,5-diphenyl tetrazolium bromide (MTT) colorimetric assay, as reported previously [62, 63]. […] Briefly, the designated cell lines were cultured at a concentration of 5 × 10^4 cell/well in 96-well plates. The cells were incubated for 24 h under optimum conditions. Following this, the designated molecules were introduced (in serial dilutions from 0 to 50 μg/mL), and the cells were incubated for an additional 24 h. Following this, the media were withdrawn, and 100 μL of fresh medium was added. Then, 10 µL of the 12 mM MTT stock solution was administered to each well. The plates were then incubated for 4 h. Then, the cells were exposed to different compounds at the desired concentrations (0.01, 0.1, 1, 10, and 100 µM) or to 1% dimethyl sulfoxide (DMSO) for 48 and 72 h. […] Then, the optical density was measured at 590 nm with the microplate reader (Sunrise, TECAN, Inc., Morrisville, NC, USA).

With `Cc1nc(NN=Cc2ccccc2)c2cnn(-c3ccccc3)c2n1` [Compound 5a, 4-(2-Benzylidenehydrazinyl)-6-methyl-1-phenyl-1H-pyrazolo[3,4-d]pyrimidine], the melting point is 160 to 162 °C. Besides, in the series with HePG-2, the concentration for half-maximal inhibition (IC50) was found to be 15.1 ± 1.2 µM. Besides, the IC50 with MCF-7 turned out to be 21.1 ± 1.5 µM. In addition, the half-maximal inhibitory concentration (IC50) with HCT-116 came out at 11.7 ± 0.9 µM.
The compound `Cc1nc(NN=Cc2ccc(Cl)cc2)c2cnn(-c3ccccc3)c2n1` [Compound 5c, 4-(2-(4-Chlorobenzylidene)hydrazinyl)-6-methyl-1-phenyl-1H-pyrazolo[3,4-d]pyrimidine] registered a melting point of 233 to 235 °C. Further, the half-inhibitory concentration (IC50) with HePG-2 came out at 83.7 ± 4.4 µM. Moreover, in the series on MCF-7, the half-inhibitory concentration (IC50) stood at 66.6 ± 3.8 µM. Moreover, the IC50 with HCT-116 was determined as 39.5 ± 2.6 µM.
For `COc1ccc(C=NNc2nc(C)nc3c2cnn3-c2ccccc2)cc1` [Compound 5d], in that order: 227 to 229 °C, 18.3 ± 1.5 µM, 19.4 ± 1.3 µM and 9.87 ± 0.7 µM.
The compound `COc1ccccc1C=NNc1nc(C)nc2c1cnn2-c1ccccc1` [Compound 5e, 4-(2-(2-Methoxybenzylidene)hydrazineyl)-6-methyl-1-phenyl-1H-pyrazolo[3,4-d]pyrimidine] came in with a melting point of 220 to 222 °C. For the same compound, the half-inhibitory concentration (IC50) in the series on HePG-2 amounted to 13.8 ± 1 µM. Moreover, the concentration for half-maximal inhibition (IC50) in the series on MCF-7 was determined as 16.1 ± 1.1 µM. Further, the IC50 in the series on HCT-116 stood at 8.15 ± 0.5 µM.
For `Cc1nc(NN=Cc2ccc([N+](=O)[O-])cc2)c2cnn(-c3ccccc3)c2n1` [Compound 5f, 6-Methyl-4-(2-(4-nitrobenzylidene)hydrazineyl)-1-phenyl-1H-pyrazolo[3,4-d]pyrimidine], in that order: 250 to 252 °C, over 100 µM, over 100 µM and 89.7 ± 4.8 µM.
`Cc1nc(NN=Cc2c(Cl)cccc2Cl)c2cnn(-c3ccccc3)c2n1` [Compound 5g, 4-(2-(2,6-Dichlorobenzylidene)hydrazineyl)-6-methyl-1-phenyl-1H-pyrazolo[3,4-d]pyrimidine] registered a melting point of 255 to 257 °C. Also, in the series with HePG-2, the IC50 was over 100 µM. Besides, the half-inhibitory concentration (IC50) with MCF-7 was over 100 µM. Besides, in the series on HCT-116, the 50% inhibitory concentration (IC50) was over 100 µM.
For the compound `Cc1nc(NN=CC=Cc2ccccc2)c2cnn(-c3ccccc3)c2n1` [Compound 5h, 6-Methyl-1-phenyl-4-(2-(-3-phenylallylidene)hydrazineyl)-1H-pyrazolo[3,4-d]pyrimidine], the melting point was 241 to 243 °C. In addition, the IC50 in the series on HePG-2 was over 100 µM. The IC50 in the series on MCF-7 is over 100 µM. The IC50 with HCT-116 was 76.8 ± 4.1 µM.
The compound `CC(=NNc1nc(C)nc2c1cnn2-c1ccccc1)c1ccc(N)cc1` [Compound 5j, 4-(1-(2-(6-Methyl-1-phenyl-1H-pyrazolo[3,4-d]pyrimidin-4-yl)hydrazineylidene)ethyl)aniline] yielded a melting point of 221 to 223 °C. In addition, in the series with HePG-2, the IC50 stood at 44.3 ± 2.9 µM. For the same compound, the IC50 in the series with MCF-7 came to 36 ± 2.4 µM. Further, the IC50 in the series on HCT-116 was 21.5 ± 1.5 µM.
On to `Cc1nc(NN2C(=O)C=CC2=O)c2cnn(-c3ccccc3)c2n1` [Compound 8, 1-((6-Methyl-1-phenyl-1H-pyrazolo[3,4-d]pyrimidin-4-yl)amino)-1H-pyrrole-2,5-dione], for which the values for the IC50 with HePG-2, in the series on MCF-7 and in the series with HCT-116 were 78.5 ± 4.3 µM, 79.5 ± 4.4 µM and 66.3 ± 3.5 µM, respectively.
For `CCCNC(=S)NNc1nc(C)nc2c1cnn2-c1ccccc1` [Compound 9b, 2-(6-Methyl-1-phenyl-1H-pyrazolo[3,4-d]pyrimidin-4-yl)-N-propylhydrazinecarbothioamide], in that order: 23.9 ± 1.8 µM, 34.2 ± 2 µM and 17.6 ± 1.3 µM.
For `COc1cc([C@@H]2c3cc4c(cc3[C@@H](O[C@@H]3O[C@@H]5CO[C@@H](C)O[C@H]5[C@H](O)[C@H]3O)[C@H]3COC(=O)[C@H]23)OCO4)cc(OC)c1O` [Etoposide, reference compound], the “TOPO IiB %inh at conc 12.5” value on Topo-II (conc 12.5, unit not given) was 7.5%. Further, the “TOPO IiB %inh at conc 25” value on Topo-II (conc 25, unit not given) is recorded as 20%. For the same compound, at Topo-II (conc 50, unit not given), the “TOPO IiB %inh at conc 50” value was determined as 39%. For the same compound, the “TOPO IiB %inh at conc 100” value on Topo-II (conc 100, unit not given) is 69%.

These data come from publication PMC10573254, “Development of Novel Class of Phenylpyrazolo[3,4-d]pyrimidine-Based Analogs with Potent Anticancer Activity and Multitarget Enzyme Inhibition Supported by Docking Studies” (International Journal of Molecular Sciences, 2023).
